Measured values reported in US11896612B2, “Resurrection of antibiotics that MRSA resists by silver-doped bioactive glass-ceramic particles” (Board of Trustees of Michigan State University, priority 2019, dated 2024).
Entries after “also recorded” stand apart in the source; their conditions may differ.

How the values were obtained:
[1] = tested on: methicillin-resistant S. aureus USA300 JE2; experiment: Antibacterial test: CFU enumeration of MRSA suspended in PBS (growth-arrested); format: cell-based, Staphylococcus aureus; details: 24 hours; for bacterial inhibition by antibiotic alone: PBS, static, oxacillin 0.1-50 μg/ml, vancomycin up to 10 mg/ml, fosfomycin 0.05-50 μg/ml, gentamicin 0.01 μg/ml
Procedure: All experiments are conducted using the laboratory derived methicillin-resistant S. aureus USA300 JE2. Cells are streaked for isolation on tryptic soy agar (TSA) and cultured at 37° C. overnight. An isolated colony is then grown in broth (TSB), shaking at 225 rpm at 37° C. overnight. Next, 1 mL solution of MRSA in PBS, normalized to an optical density (OD600 nm) equal to 1 (equivalent to 10^8 CFU/mL) is prepared. The bacterial suspension is mixed in a 1:1 volume ratio, with each of the solutions containing twofold the final concentration of Ag-BG, antibiotic, or the indicated Ag-BG/antibiotic combination. An untreated control is also prepared by mixing the bacterial suspension in a 1:1 volume ratio with PBS.
Bacterial suspensions are placed in a 37° C. incubator for the indicated time. At each time point, an aliquot of the bacterial suspension is removed to enumerate colony forming units (CFU) of the bacteria via serial dilution and plating on TSA. All plates are incubated at 37° C. Quantification of CFU are performed in biological and technical triplicate. Measurements are repeated three times. Standard deviation is indicated as error bars. Statistical analysis is performed using the paired Student's t-test, two tailed, n=9 and p<0.05.
The bactericidal properties of Ag-BG alone, vancomycin alone (vanc) and the combination of Ag-BG with vancomycin (Ag-BG/vanc) were studied against laboratory-derived methicillin-resistant S. aureus (MRSA) USA300 JE241. The bacteria cells were prepared by isolation of a single colony, followed by its inoculation in tryptic soy broth overnight at 37° C. A bacterial suspension was prepared by adjusting the concentration of the overnight culture to 108 colony forming units (CFU)/mL in Phosphate Buffered Saline (PBS). Then, the bacterial suspension was mixed 1:1 with the corresponding treatment (Ag-BG, Ag-BG/vanc or vanc) to a final volume of 1 mL. A negative control was prepared by suspending bacteria 1:1 in PBS. After 24 h of incubation at 37° C., […] of suspension were drawn from the mixture for CFU enumeration in tryptic soy agar plates. The effect of the treatments was evaluated based on the decrease of CFU compared to the negative control. Quantification of CFU was performed in biological and technical triplicates.
Vancomycin (molecular formula: C66H75C12N9O24·HCl, Vancomycin hydrochloride) is a cell-wall targeting antibiotic with no effect against MRSA under growth-arrested conditions and was selected for this example. Here, the concentration dependency of this synergism was evaluated by exposing MRSA to different combinations of Ag-BG/vanc. Two experimental set-ups were considered. Initially, 0.5 mg/mL of vancomycin were delivered together with 1.25, 2.5, 3.75 or 6.5 mg/mL of Ag-BG and then, 2.5 mg/mL of Ag-BG were combined with 0.1, 0.3, 0.5 and 1 mg/mL of vancomycin. The Ag-BG powder was sterilized using UV radiation before exposure to bacteria. The antibiotic treatment was prepared by dilution of vancomycin powder at different concentrations in PBS, and the Ag-BG/vanc samples were prepared by mixing Ag-BG powder with the corresponding vancomycin solution.

[2] = tested on: MRSA; experiment: Vancomycin susceptibility of MRSA cultured in tryptic soy broth (TSB); format: cell-based, Staphylococcus aureus
Procedure: Oxacillin and fosfomycin are used at 0.1 and 0.05 μg/ml, respectively—a concentration that is considerably lower than their MIC. Vancomycin (molecular formula: C66H75C12N9O24·HCl, Vancomycin hydrochloride) is selected due to a mechanism of action that is dependent on cell growth. MRSA is susceptible to 0.47 μg/ml of vancomycin when cultured in tryptic soy broth (TSB). However, exposure to vancomycin in growth arrested conditions, such as suspension in phosphate buffered saline (PBS), enhances tolerance to the antibiotic. Cells are exposed to 0.5 mg/ml vancomycin in PBS. […] All antibiotics are purchased from Sigma Aldrich in powder USP Reference Standard and are used without further purification.

[3] = tested on: MRSA; experiment: TEM and SEM imaging of MRSA after exposure; format: cell-based, Staphylococcus aureus; details: 24 hours exposure in PBS
Procedure: After 24 hours of incubation, solutions are prepared for studies with TEM to observe the morphology and ultrastructural properties of bacteria in each of the tested groups. The cultures are centrifuged and fixed using Karnovsky fixative, consisting of 2.5% glutaraldehyde, 2.5% paraformaldehyde and 0.1 M cacodylate buffer dissolved in deionized water. In the cases of the tested groups with Ag-BG particles, the particles are removed by allowing them to settle to the bottom of the Eppendorf microcentrifuge tubes before centrifugation and fixation. Bacteria pellets are suspended and incubated in fixative for 2 hours at room temperature. Next, the suspensions are centrifuged to remove the fixative. To capture bacteria in a solid matrix, a drop of a 2% agarose deionized water solution is added to the cell pellet. After the agarose solidifies, the matrix is washed three times at room temperature for 15 minutes with 0.1 M cacodylate buffer. A solution of 2% osmium tetroxide is used to stain the bacterial cells for 1 hour at the post-fixation stage. Subsequently, the cubes are washed with deionized water. Dehydration is done by a series of different concentrations of acetone: 25%, 50%, 75%, and 100%. Next, Spurr resin is infiltrated in a series of dilutions in acetone (acetone: resin): 3:1, 1:1, and 100% resin for two days. The cells are embedded in 100% Spurr resin at 60° C. for 24 hours and then, thin sections of less than 100 nm thickness are obtained by ultramicrotome (RMC MYX ultramicrotome) with glass knives and are mounted in bare copper grids. Positive staining is done with 2% uranyl acetate for 7 minutes and lead citrate for 3 minutes. Finally, samples are observed at 100 kV in a JEOL 100CX microscope.
Bacterial morphology upon exposure to Ag-BG particles is studied using SEM. Cells are prepared after 12 hours of exposure. In this case, the Ag-BG particles remain in the solution with the cells and are fixed using 2.5% glutaraldehyde, 2.5% paraformaldehyde, and 0.1 M cacodylate buffer dissolved in deionized water. […]

[4] = tested on: eukaryotic cells; details: cited from earlier work
[5] = tested on: bacteria; details: cited from earlier work
[6] = tested on: human mesenchymal stem cells (hBMSC); experiment: Proliferation of human mesenchymal stem cells, CCK-8; format: cell-based; details: 0.2 mg/mL Ag2O in transwell, 4 days exposure
Procedure: Primary bone-marrow derived human mesenchymal stem cells (hBMSC) isolated from healthy donor were obtained from the Institute of Regenerative Medicine, Texas A&M University. Frozen vials of cells were thawed and cultured a in α-MEM supplemented with 16% fetal bovine serum, 1% Antibiotic-Antimycotic and 1% L-glutamine (hereafter, growth medium) in a humidified 37° C./5% CO2 incubator. Cells were expanded until 90% confluence to a final passage. Cells were enzymatically lifted, centrifuged for 5 min and re-suspended fresh media. Cells were seeded at a density of 15×10^3 cells/mL on each well of 24-well plate by pipetting 0.5 mL/well. After 24 h, Ag-BGN (5, 10 and 20 mg/mL) were transferred to porous transwells and inside the wells to treat cell for 2, 4, 6, 8 and 10 days. The results were compared to a positive control consisting on cell immersed only in media and a negative control consisting on cells treated with Ag2O exposed using a porous transwell. […]
After each time point, cell viability and proliferation were assessed introducing a CCK-8 kit solution in the wells after removing the transwells. After 2 h, […] were drawn and placed in a 96 well plate and its optical density was measured at 470 nm wavelength. […]

| Compound | bacterial inhibition by antibiotic alone [1] | bacterial ultrastructure by TEM [3] | further results |
| --- | --- | --- | --- |
| CN[C@H](CC(C)C)C(=O)N[C@H]1C(=O)N[C@@H](CC(N)=O)C(=O)N[C@H]2C(=O)N[C@H]3C(=O)N[C@H](C(=O)N[C@H](C(=O)O)c4cc(O)cc(O)c4-c4cc3ccc4O)[C@H](O)c3ccc(c(Cl)c3)Oc3cc2cc(c3O[C@@H]2O[C@H](CO)[C@@H](O)[C@H](O)[C@H]2O[C@H]2C[C@](C)(N)[C@H](O)[C@H](C)O2)Oc2ccc(cc2Cl)[C@H]1O [vancomycin, Vancomycin] | not lethal; also recorded: no reduction of CFU/mL | intact cells | concentration to which MRSA is susceptible [2]: 0.47 µg/mL |
| Gentamicin | does not inhibit significantly | – | concentration that significantly inhibits MRSA ([1]; static conditions): higher than 0.1 μg/ml |
| Cc1onc(-c2ccccc2)c1C(=O)N[C@@H]1C(=O)N2[C@@H]1SC(C)(C)[C@@H]2C(=O)O [oxacillin, Oxacillin] | no demonstrable bacterial inhibition | intact cells | – |
| silver ions | – | – | lowest concentration that induces cytotoxicity [4]: 1.6 ppm; minimum bactericidal concentration [5]: 0.1 ppm |
| [Ag+].[Ag+].[O-2] [Ag2O] | – | – | cell viability [6]: not viable |
| C[C@@H]1O[C@@H]1P(=O)(O)O [fosfomycin, Fosfomycin] | resistant | intact cells | – |
